Reference: US20160279297A1, “METHODS FOR INHIBITING STENOSIS, OBSTRUCTION, OR CALCIFICATION OF A STENTED HEART VALVE OR BIOPROSTHESIS” (CONCIEVALVE LLC, priority 2013, published 2016)

Key:
[1] = rabbit model of experimental hypercholesterolemia, serum levels; assay type: in vivo; details: cholesterol-fed rabbits, atorvastatin 3.0 mg/kg daily orally
From the text: An experimental animal was developed to test for the dosing of the atorvastatin to reduce the inflammation and also the pannus formation on the valve leaflet. The experimental procedure is as follows, Male New Zealand white rabbits weighing 2.5-3.0 kg were assigned to a control (N=10) or 0.5% cholesterol-fed group (N=10) or to a cholesterol-fed and atorvastatin group (N=10). All animals were fed ad libitum for 12 weeks. Control rabbits were fed a standard diet. Cholesterol-fed animals received a diet supplemented with 0.5% (w/w) cholesterol (Purina Mills, Woodmont, Ind.), and the cholesterol-fed and atorvastatin group were given atorvastatin 3.0 mg/kg daily orally for the statin treatment arm^1. Prior to the initiation of the diet the rabbits underwent surgical implantation of bovine pericardial bioprosthetic valve tissue (Perimount, Edwards, Irvine Calif.) using intramuscular ketamine/xylazine (40/5 mg/kg). Following this 12-week period, the rabbits were anesthetized using intramuscular ketamine/xylazine (40/5 mg/kg) and then underwent euthanasia with intracardiac administration of 1 ml of Beuthanasia. Immediately after removal from the subcutaneous implantation site the bioprosthetic valves were fixed in 4% buffered formalin for 24 hours and then embedded in paraffin. Paraffin embedded sections (6 μm) were cut and stained with Masson Trichrome stain for histopathologic exam. […]

[2] = tested on: bovine pericardial bioprosthetic valve tissue; assay: rabbit model with subcutaneously implanted bioprosthetic valve tissue: RNA expression and pannus formation; assay type: in vivo
[3] = tested on: Mesenchymal valve cells; assay: tritiated thymidine incorporation, PDGF-stimulated cell proliferation; assay type: cell-based
Protocol: Mesenchymal valve cells were isolated from the cardiac aortic valves by collagenase digestion. Cells were cultured in medium 199 with 10% (v/v) heat-inactivated fetal bovine serum at 37 C in a humidified atmosphere of 5% CO2 in air. Cells were utilized between the 3rd and 7th passage. Mesenchymal cells were grown to confluence in 24-well plates and then growth-arrested by incubation in serum-free medium for 24 hours. The test materials were added to the wells and incubated for 18 hours. Test materials include PDGF at concentrations (10-40 ug/ml) PDGF Sigma in combination with a MEK inhibitor (PD0325901 Mek Inhibitor) (2.5-10 ug/ml). The wells were pulsed for 4 hours with 1 μCi/well of tritiated thymidine. Newly synthesized DNA will be then identified by incorporation of radioactivity into acid-precipitated cellular material. All samples were assayed in quadruplicate wells. The positive control wells were given PDGF (10 ug/ml) Sigma (St. Louis, Mo.), the negative control wells received serum-free medium.

[4] = tested on: p42/44; assay: p42/44 protein expression by western blot; assay type: cell-based; details: FIG. 16 Panel C
[5] = tested on: neointima hyperplasia; details: stent coating, at four weeks; cited from earlier work
[6] = from biodegradable polylactic acid, follow-up of four years; cited from earlier work
[7] = atorvastatin at 80 mg per day equivalent to human dosing, FIG. 15

In the case of `CC(C)c1c(C(=O)Nc2ccccc2)c(-c2ccccc2)c(-c2ccc(F)cc2)n1CC[C@@H](O)C[C@@H](O)CC(=O)O` [Atorvastatin], the hsCRP serum levels ([1]; 12 weeks) was 7.8±8.7, the serum cholesterol levels ([1]; 12 weeks (equivalent to 80 mg a day for humans)) was 824.0 ± 152.1 mg/dL and the “stem cell RNA expression on the valves” value [2, 7] was “reduction”. The “stem cell mediated pannus formation” value [2, 7] was “reduction”, the “therapeutic benefit at the lower dosing ranges” value ([2]; previous experiments, 20 mg a day and 40 mg a day) was “zero therapeutic benefit” and the “ckit stem cell adhering to the valve” value ([2]; rabbit, in vivo) was “reduces”.
With `O=C(NOC[C@H](O)CO)c1ccc(F)c(F)c1Nc1ccc(I)cc1F` [PD0325901] the “dosing range with inhibition effect on cell proliferation” value ([3]; PDGF 10 ug/ml induced proliferation, tested range 2.5-10 ug/ml, 18 hours, FIG. 16 Panel B) was 5 to 10 µg/mL and the p42/44 protein expression [4] was “inhibition”.
In the case of `CC(=O)O[C@H]1C(=O)[C@@]2(C)[C@H]([C@H](OC(=O)c3ccccc3)[C@]3(O)C[C@H](OC(=O)[C@H](O)[C@@H](NC(=O)c4ccccc4)c4ccccc4)C(C)=C1C3(C)C)[C@]1(OC(C)=O)CO[C@@H]1C[C@@H]2O` [Paclitaxel], the neointima hyperplasia [5] is listed as “inhibits”.
For `CCOCCO[C@@H]1CC[C@@H](C[C@@H](C)[C@@H]2CC(=O)[C@H](C)/C=C(\C)[C@@H](O)[C@@H](OC)C(=O)[C@H](C)C[C@H](C)/C=C/C=C/C=C(\C)[C@@H](OC)C[C@@H]3CC[C@@H](C)[C@@](O)(O3)C(=O)C(=O)N3CCCC[C@H]3C(=O)O2)C[C@H]1OC` [biolimus], the “major adverse clinical events versus sirolimus eluting stents” value [6] is listed as “not inferior and potentially better”.
In the case of PDGF, the mesenchymal cell proliferation ([3]; PDGF dose response 10-40 ug/ml, FIG. 16 Panel A) was “proliferating” and the p42/44 protein expression [4] was “increase”.
